Measurements taken from PMC9225965 (Bioorganic & Medicinal Chemistry Letters, 2022).

Assays:
[1] = target: SARS-CoV-2 M^pro (Severe acute respiratory syndrome coronavirus 2, UniProt P0DTD1); assay: biochemical; conditions: for inhibition at 50 µM: read-out: M^pro inhibition
[2] = tested on: SARS-CoV-2 main protease; conditions: read-out: reported IC50; similar FRET-based assays; cited from earlier work

Compound	activity in the presence of Triton-X (aggregation control) ([1]; IC50 experiment repeated with 0.02 % Triton-X in reaction buffer)	inhibition at 50 µM [1] [%]	IC50 [2] [µM]
O=C(CSc1nc2cc(Cl)ccc2n1Cc1ccccc1)N1CCNC1=O [Compound 8]	not attenuated	> 50	–
COCCn1c(C(=O)NCC(O)c2ccccc2)nc2ccccc2c1=O (stereo not shown) [Compound 10]	–	> 50	–
